T/C data for 20 compounds are collected here from PubChem BioAssay AID256 (DTP/NCI, 2004).

The test system of the test is CD2F1 mice, L1210 leukemia ip, survival T/C. As to the kind of experiment: NCI In Vivo Anticancer Drug Screen. Data for tumor model L1210 Leukemia (intraperitoneal) in CD2F1 (CDF1) mice. As to conditions: higher = longer survival. The method, then:
The antitumor activity of compounds was measured in mice bearing transplantable tumors. Survival or tumor size were measured and the results are expressed as the measurement made in the treated group (T) divided by the measurement made in the vehicle treated control group (C). The tumor model used in this assay is L1210 Leukemia (intraperitoneal) in CD2F1 (CDF1) mice

[1] abbreviates: endpoint: mean survival time, dose: 100.0 mg/kg/injection, schedule: Q01DX009 (ip), vehicle: saline with Tween-80.
Where [2] appears, read: endpoint: mean survival time, dose: 200.0 mg/kg/injection, schedule: Q01DX009 (ip), vehicle: saline with Tween-80.
The mark [3] stands for this setting: endpoint: mean survival time, dose: 400.0 mg/kg/injection, schedule: Q01DX009 (ip), vehicle: saline with Tween-80.
Where [4] appears, read: endpoint: mean survival time, dose: 100.0 mg/kg/injection, schedule: Q04DX003 (ip), vehicle: saline with Tween-80.
Setting [5] is: endpoint: mean survival time, dose: 200.0 mg/kg/injection, schedule: Q04DX003 (ip), vehicle: saline with Tween-80.
The mark [6] stands for this setting: endpoint: mean survival time, dose: 400.0 mg/kg/injection, schedule: Q04DX003 (ip), vehicle: saline with Tween-80.
[7] abbreviates: endpoint: mean survival time, dose: 50.0 mg/kg/injection, schedule: Q01DX009 (ip), vehicle: Klucel (hydroxypropylcellulose) (HPC).
[8] abbreviates: endpoint: mean survival time, dose: 200.0 mg/kg/injection, schedule: Q01DX009 (ip), vehicle: Klucel (hydroxypropylcellulose) (HPC).
The mark [9] stands for this setting: endpoint: mean survival time, dose: 100.0 mg/kg/injection, schedule: Q01DX001 (ip), vehicle: saline.
Setting [10] is: endpoint: mean survival time, dose: 50.0 mg/kg/injection, schedule: Q01DX009 (ip), vehicle: saline with Tween-80.

Toxic doses and inconclusive results are not listed.

With `O=C(NCCc1nc(-c2nc(C(=O)O)cs2)cs1)c1ccccc1`, the T/C is 96 % of control under setting [1], 96 % of control under setting [2] and 96 % of control under setting [3].

As to `CC(=O)Nc1nn(C)c(C#N)c1C#N`, the T/C by setting is: (endpoint: mean survival time, dose: 37.5 mg/kg/injection, schedule: Q04DX002 (ip), vehicle: saline with Tween-80) 106 % of control; (endpoint: mean survival time, dose: 75.0 mg/kg/injection, schedule: Q04DX002 (ip), vehicle: saline with Tween-80) 106 % of control; (endpoint: mean survival time, dose: 150.0 mg/kg/injection, schedule: Q04DX002 (ip), vehicle: saline with Tween-80) 102 % of control.

Turning to `BrC=C=C1CCCCC1`, the T/C runs as follows: under setting [4], 95 % of control; under setting [5], 93 % of control; under setting [6], 97 % of control.

In the case of `CC(=O)Nc1cccc(N=NN(C)C)c1`, the T/C is 113 % of control (endpoint: mean survival time, dose: 12.5 mg/kg/injection, schedule: Q01DX009 (ip), vehicle: Klucel (hydroxypropylcellulose) (HPC)); 151 % of control under setting [7]; 87 % of control under setting [8].

`CN1CCN(c2ccccc2)CC1`: under setting [9], the T/C is 112 % of control.

`O=C(O)Cc1ccccc1C(=O)O.[Pb]`: the T/C runs as follows: under setting [10], 102 % of control; under setting [1], 102 % of control; under setting [4], 93 % of control; under setting [5], 98 % of control.

On to `O=C(O)CCCCCCCCC#CC#CCCCc1ccccc1`, for which the T/C reads like this: (endpoint: mean survival time, dose: 100.0 mg/kg/injection, schedule: Q04DX003 (ip), vehicle: Klucel (hydroxypropylcellulose) (HPC)) 95 % of control; (endpoint: mean survival time, dose: 200.0 mg/kg/injection, schedule: Q04DX003 (ip), vehicle: Klucel (hydroxypropylcellulose) (HPC)) 95 % of control; (endpoint: mean survival time, dose: 400.0 mg/kg/injection, schedule: Q04DX003 (ip), vehicle: Klucel (hydroxypropylcellulose) (HPC)) 97 % of control.

For `CCOC(=O)c1c(Cl)nc2ccccc2c1Cl`, the T/C was 105 % of control under setting [10], 105 % of control under setting [1] and 94 % of control under setting [2].

In the case of `CCC(C)CC(C)N` (stereo not given), under setting [9], the T/C is 104 % of control.

With `N/C(=N\OC(=O)Nc1ccc(CSc2ccc(Cl)cc2)o1)c1ccccn1`, the T/C (endpoint: median survival time, dose: 12.5 mg/kg/injection, schedule: Q01DX009 (ip), vehicle: Klucel (hydroxypropylcellulose) (HPC)) is 98 % of control; the T/C (endpoint: median survival time, dose: 25.0 mg/kg/injection, schedule: Q01DX009 (ip), vehicle: Klucel (hydroxypropylcellulose) (HPC)) was 103 % of control; the T/C (endpoint: median survival time, dose: 50.0 mg/kg/injection, schedule: Q01DX009 (ip), vehicle: Klucel (hydroxypropylcellulose) (HPC)) was 102 % of control; the T/C (endpoint: median survival time, dose: 100.0 mg/kg/injection, schedule: Q01DX009 (ip), vehicle: Klucel (hydroxypropylcellulose) (HPC)) was 102 % of control; the T/C (endpoint: median survival time, dose: 200.0 mg/kg/injection, schedule: Q01DX009 (ip), vehicle: Klucel (hydroxypropylcellulose) (HPC)) was 95 % of control.

In the case of `CC(C)=NNS(=O)(=O)c1ccc(C)cc1`, the T/C (endpoint: mean survival time, dose: 25.0 mg/kg/injection, schedule: Q01DX009 (ip), vehicle: Klucel (hydroxypropylcellulose) (HPC)) was 102 % of control; the T/C under setting [7] is 96 % of control; the T/C (endpoint: mean survival time, dose: 100.0 mg/kg/injection, schedule: Q01DX009 (ip), vehicle: Klucel (hydroxypropylcellulose) (HPC)) is 93 % of control; the T/C under setting [8] is 86 % of control; the T/C (endpoint: mean survival time, dose: 400.0 mg/kg/injection, schedule: Q01DX009 (ip), vehicle: Klucel (hydroxypropylcellulose) (HPC)) is 91 % of control.

`CC(O)CCC(=O)c1ccoc1` (stereo not given): the T/C is 109 % of control (endpoint: median survival time, dose: 0.62 mg/kg/injection, schedule: Q03HX015 (ip), vehicle: saline); 117 % of control (endpoint: median survival time, dose: 1.25 mg/kg/injection, schedule: Q03HX015 (ip), vehicle: saline); 106 % of control (endpoint: median survival time, dose: 2.5 mg/kg/injection, schedule: Q03HX015 (ip), vehicle: saline); 112 % of control (endpoint: median survival time, dose: 3.75 mg/kg/injection, schedule: Q03HX015 (ip), vehicle: saline + alcohol); 102 % of control (endpoint: median survival time, dose: 5.0 mg/kg/injection, schedule: Q03HX015 (ip), vehicle: saline); 105 % of control (endpoint: median survival time, dose: 7.5 mg/kg/injection, schedule: Q03HX015 (ip), vehicle: saline + alcohol). Also, the T/C (endpoint: median survival time, dose: 10.0 mg/kg/injection, schedule: Q03HX015 (ip), vehicle: saline) was 109 % of control.

As to `O=C(NC(=S)Nc1cccc(O)c1)c1cccc(Br)c1`, the T/C under setting [1] is 96 % of control, the T/C under setting [2] was 96 % of control and the T/C under setting [3] was 97 % of control.

`CC(C(=O)c1cc(O)c(O)cc1C(O)(C(F)(F)F)C(F)(F)F)C(O)(C(F)(F)F)C(F)(F)F` (stereo not given): the T/C is 94 % of control under setting [1], 94 % of control under setting [2] and 94 % of control under setting [3].

Consider `COc1ccc(C2=CC(c3ccccc3)C(c3ccccc3)C(=O)N2)cc1` (stereo not given), for which the T/C by setting is: (endpoint: mean survival time, dose: 25.0 mg/kg/injection, schedule: Q04DX002 (ip), vehicle: saline with Tween-80) 98 % of control; (endpoint: mean survival time, dose: 200.0 mg/kg/injection, schedule: Q04DX002 (ip), vehicle: saline with Tween-80) 97 % of control; (endpoint: mean survival time, dose: 400.0 mg/kg/injection, schedule: Q04DX002 (ip), vehicle: saline with Tween-80) 90 % of control.

In the case of `OCC1OC(n2cnc3c2NC=NCC3O)C(Cl)C1O` (stereo not given), the T/C (endpoint: median survival time, dose: 5.0 mg/kg/injection, schedule: Q01DX005 (ip), vehicle: other) was 101 % of control; the T/C (endpoint: median survival time, dose: 10.0 mg/kg/injection, schedule: Q01DX005 (ip), vehicle: other) was 103 % of control; the T/C (endpoint: median survival time, dose: 20.0 mg/kg/injection, schedule: Q01DX005 (ip), vehicle: other) is 96 % of control; the T/C (endpoint: median survival time, dose: 30.0 mg/kg/injection, schedule: Q01DX005 (ip), vehicle: other) is 118 % of control; the T/C (endpoint: median survival time, dose: 40.0 mg/kg/injection, schedule: Q01DX005 (ip), vehicle: other) is 106 % of control; the T/C (endpoint: median survival time, dose: 60.0 mg/kg/injection, schedule: Q01DX005 (ip), vehicle: other) was 107 % of control. Further, the T/C (endpoint: median survival time, dose: 120.0 mg/kg/injection, schedule: Q01DX005 (ip), vehicle: other) is 100 % of control.

Take `CC(=O)OCc1cccnc1`: the T/C is 96 % of control (endpoint: mean survival time, dose: 100.0 mg/kg/injection, schedule: Q01DX009 (ip), vehicle: saline); 94 % of control (endpoint: mean survival time, dose: 200.0 mg/kg/injection, schedule: Q01DX009 (ip), vehicle: saline); 86 % of control (endpoint: mean survival time, dose: 400.0 mg/kg/injection, schedule: Q01DX009 (ip), vehicle: saline).

Regarding `CC1(C)COC2(c3ccccc3)N1C(=C(Cl)Cl)OC(=O)C2(Cl)Cl` (stereo not given), the T/C by setting is: (endpoint: mean survival time, dose: 75.0 mg/kg/injection, schedule: Q01DX001 (ip), vehicle: saline with Tween-80) 101 % of control; (endpoint: mean survival time, dose: 150.0 mg/kg/injection, schedule: Q01DX001 (ip), vehicle: saline with Tween-80) 90 % of control; (endpoint: mean survival time, dose: 300.0 mg/kg/injection, schedule: Q01DX001 (ip), vehicle: saline with Tween-80) 109 % of control.

As to `CNS(=O)(=O)c1ccc2c(c1)nc(SC)n2C`, the T/C is, setting by setting: under setting [1], 101 % of control; under setting [4], 102 % of control; under setting [2], 101 % of control; under setting [5], 94 % of control; under setting [3], 93 % of control; under setting [6], 95 % of control.

In the case of `[I][Pt+2][I].[NH-]c1ccc(F)cc1.[NH-]c1ccc(F)cc1`, the T/C was 108 % of control (endpoint: mean survival time, dose: 3.13 mg/kg/injection, schedule: Q04DX003 (ip), vehicle: distilled water + Tween-80); 108 % of control (endpoint: mean survival time, dose: 6.25 mg/kg/injection, schedule: Q04DX003 (ip), vehicle: distilled water + Tween-80); 98 % of control (endpoint: mean survival time, dose: 12.5 mg/kg/injection, schedule: Q04DX003 (ip), vehicle: distilled water + Tween-80); 101 % of control (endpoint: mean survival time, dose: 25.0 mg/kg/injection, schedule: Q04DX003 (ip), vehicle: distilled water + Tween-80); 108 % of control (endpoint: mean survival time, dose: 50.0 mg/kg/injection, schedule: Q04DX003 (ip), vehicle: distilled water + Tween-80); 87 % of control (endpoint: mean survival time, dose: 100.0 mg/kg/injection, schedule: Q04DX003 (ip), vehicle: distilled water + Tween-80).
